Measurements reported in PubChem BioAssay AID652087 (The Scripps Research Institute Molecular Screening Center, 2013).
Calls of active or inactive are those of the source.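 How the source made its calls: active means inhibition above 30%; inactive means inhibition at or below 30%.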

What follows are compounds tested against Sphingosine 1-phosphate receptor 1 (Homo sapiens) (UniProt P21453) (assay: S1P1 receptor antagonists, human, confirmation, counter-screen for OPRK1 antagonist project, cell-based, fluorescence (AID 652087)). Conditions: Tango EDG-1-bla U2OS, beta-lactamase FRET, S1P antagonism; at 9 µM; stronger effect = higher value.
Sphingosine 1-phosphate receptor 1 (Homo sapiens), sequence (P21453 whole entry, looked up): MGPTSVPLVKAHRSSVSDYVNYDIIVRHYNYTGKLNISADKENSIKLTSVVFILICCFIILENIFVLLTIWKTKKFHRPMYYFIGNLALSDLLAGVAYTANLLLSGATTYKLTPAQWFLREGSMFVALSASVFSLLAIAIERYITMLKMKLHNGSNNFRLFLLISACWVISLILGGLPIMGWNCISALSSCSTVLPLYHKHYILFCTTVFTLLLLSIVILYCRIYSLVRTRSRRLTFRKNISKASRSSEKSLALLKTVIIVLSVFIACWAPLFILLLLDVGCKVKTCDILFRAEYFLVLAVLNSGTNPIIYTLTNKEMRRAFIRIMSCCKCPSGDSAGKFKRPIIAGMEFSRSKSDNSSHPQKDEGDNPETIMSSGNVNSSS

| SMILES | inhibition |
| --- | --- |
| COc1ccc([N+](=O)[O-])c(S(=O)(=O)c2ccc(Cl)cc2)n1 | 12.7% (inactive) |
| N#Cc1cccnc1NNC(=O)COCC(=O)O | 86.5% |
| CCOC(=O)c1ccc(N2CC3CCCCN3C2c2cccc(OC)c2O)cc1 (stereo unspecified) | -25.2% (inactive) |
| CCOC(=O)c1cc(C(=O)OC)c(C)nc1N1CCC(NC2CCCCC2O)CC1 (stereo unspecified) | -1.54% (inactive) |
| O=C(Nc1ccc(F)c(Cl)c1)c1cc(Br)ccc1O | 51.5% |
| S=C(NNc1c(Cl)cncc1Cl)Nc1ccc(Cl)cc1Cl | 45.3% |
| N#Cc1cccc(C#N)c1Oc1ccc(N)cc1 | 15.3% (inactive) |
| COC(=O)c1cc(-c2ccc(OC)cc2)c(-c2ccc(OC)cc2)s1 | 9.19% (inactive) |
| Oc1c(Cl)cc(Cl)cc1C1Nc2cc(Cl)c(C(F)(F)F)cc2N1 (stereo unspecified) | 38.5% |
| O=C(O)C(F)(F)C(F)(F)C(=O)NCc1cccc(Cl)c1 | -3.44% (inactive) |
| O=C(Nc1ccc(Cl)cc1Cl)c1cc([N+](=O)[O-])cc2c1-c1ccc([N+](=O)[O-])cc1C2=O | 63.3% |
| COc1cc([N+](=O)[O-])c(OC)cc1SCc1n[nH]c(=S)n1-c1ccc(C)cc1 | 3.13% (inactive) |
| O=C(/C=C/c1cc(-c2ccccc2)c(C(F)(F)F)s1)c1cccs1 | 23.6% (inactive) |
| CCN(CC)c1ccc(/C=C/c2ccc([N+](=O)[O-])cc2C#N)cc1 | 55.7% |
| C#Cc1cccc(NC(=O)c2sc3nc4c(c(-c5cccs5)c3c2N)CCCC4)c1 | 46.3% |
| COc1cccc(/C=C(\C#N)c2ccc([N+](=O)[O-])cc2)c1OC | 52.1% |
| CN(C)c1cccc2c1c(NC(=O)Nc1ccc(OCc3ccccc3)cc1)nn2C | -0.3% (inactive) |
| CCCCCCCCCCCC(=O)ON1C(=O)CCC1=O | 51.2% |
| CN(C)c1cc(NC(=O)Nc2ccccc2)c2ccccc2n1 | -14.9% (inactive) |
| Cc1ccc(/C=c2\sc3nc4ccccc4n3c2=O)o1 | -0.81% (inactive) |
| COC(=O)/C=C1\SC(=Nc2ccc(Cl)cc2)N(c2ccc(Cl)cc2)C1=O | 42.5% |
| O=C(c1cnn(-c2ccc(Cl)cc2)c1C(F)(F)F)N1CCN(c2ncnc3ccsc23)CC1 | -19.1% (inactive) |

| SMILES | inhibition |
| --- | --- |
| O=c1c2cc(-c3ccccc3)sc2nnn1/N=C/c1cccs1 | 15.2% (inactive) |
| CCCCNc1ccc2c3c(cccc13)C(=O)N(CCCC)C2=O | 93.5% |
| CS(=O)(=O)/C(C#N)=C\c1ccc(Cl)s1 | -11.8% (inactive) |
| O=[N+]([O-])c1ccc(C2=NN(c3ccccc3)C(c3ccco3)C2)cc1 (stereo unspecified) | 124% |
| COc1ccccc1NC(=O)NCCN1CCN(Cc2ccccc2)CC1 | 66.8% |
| Brc1ccc(-c2csc(Nc3ccncc3)n2)cc1 | 65.4% |
| COC(=O)c1cnn(-c2ccc(Cl)cc2)c1C=C(C#N)C#N | 45.1% |
| O=[N+]([O-])c1ccc(N2CCc3ccccc32)cc1 | 36.8% |
| COC(=O)c1ccc(/C=C2\C(=O)Nc3ccccc32)n1-c1ccc(F)cc1 | 9.9% (inactive) |
| CCOC(=O)c1cn[nH]c1NC(=S)Nc1cccc(C(F)(F)F)c1 | 71.7% |
| CC(CCC(C)OC(=O)c1ccccc1C(=O)O)OC(=O)c1ccccc1C(=O)O (stereo unspecified) | -6.9% (inactive) |
| C=CCn1c(-c2sc3nnc(-c4ccccc4)c(-c4ccccc4)c3c2N)n[nH]c1=S | 33.4% |
| COc1cccc(C(=O)c2sc3nsc(SCc4ccc(F)cc4)c3c2N)c1 | -12.7% (inactive) |
| CN(C)c1ccc(-n2nnnc2SCc2ccc(Cl)cc2)cc1 | 37.2% |
| N#Cc1c(S/C=C(\O)c2cc3ccccc3o2)nc2c(c1C(F)(F)F)CCCC2 | 14.5% (inactive) |
| Cn1c(=O)c2cc3cc(Cl)ccc3nc2c2c(=O)n(-c3ccccc3)c(=O)n(-c3ccccc3)c21 | 59.2% |
| CC(=O)N1CCC(C(=O)O/N=C(\N)c2ccc(Cl)cc2)CC1 | 16.3% (inactive) |
| O=C(N/C(=C\c1ccc(-c2ccc([N+](=O)[O-])cc2)o1)c1nc2ccccc2[nH]1)c1ccccc1 | 73.1% |
| CCCCCC[n+]1ccccc1/C=C/c1ccc(N(C)C)cc1 | 99.1% |
| C=CCNC(=S)NNC(=O)c1oc2nc(-c3ccc(Cl)cc3)cc(-c3ccccc3)c2c1N | 8.18% (inactive) |
| O=[N+]([O-])c1ccc(-c2ccc(/C=N/NC(=S)Nc3cccc(F)c3)o2)cc1 | 67.9% |
| O=[N+]([O-])c1c(Sc2ccc(Cl)cc2)ccc2nsnc12 | 76.9% |

| SMILES | inhibition |
| --- | --- |
| CC(=O)Nc1onc(C)c1-c1nc(-c2ccc(Cl)cc2Cl)cs1 | -6.28% (inactive) |
| CSc1ccc(/C=C/c2onc(C)c2[N+](=O)[O-])s1 | 10.1% (inactive) |
| CCOC(=O)C1CCN(Cc2cccc(NC(=O)c3ccco3)c2)CC1 | 15.4% (inactive) |
| O=[N+]([O-])c1ccc(-c2ccc(/C=N/Nc3ccccc3)o2)cc1 | 92.1% |
| CC(=O)c1sc2nc(-c3cccs3)cc(C(F)(F)F)c2c1N | 2.13% (inactive) |
| O=[N+]([O-])c1ccc(N/N=C/c2ccc(-c3cccs3)s2)nc1 | 79.4% |
| CC1COC(c2cccc([N+](=O)[O-])c2)N1 (stereo unspecified) | 2.16% (inactive) |
| O=C(Nc1ccc([N+](=O)[O-])cc1)Nc1csc(-c2cccnc2)n1 | 5.35% (inactive) |
| Nc1c(C(=O)c2ccccc2)sc2nsc(SCCN3CCCC3)c12 | 27.5% (inactive) |
| CSc1sc(C(=O)NC(=O)Nc2ccc(Cl)cc2)c2c1-c1nocc1CC2 | 18.7% (inactive) |
| O=[N+]([O-])c1ccc(N/N=C2\CCOc3ccc(F)cc32)cc1 | 23.2% (inactive) |
| c1ccc(-c2cc3ncnc(NCc4ccc5c(c4)OCO5)c3s2)cc1 | 4.01% (inactive) |
| Clc1ccc2nc3c(nc2c1)Nc1ccccc1S3 | 94.9% |
| COc1ccccc1C1CCN(Cc2ccc3c(c2)CCC(C)(C)O3)CC1 | -5.53% (inactive) |
| COc1ccc(OS(=O)(=O)c2sc(Br)cc2Br)cc1 | 11.6% (inactive) |
| O=C(NNC(=O)C(F)(F)F)c1ccc[nH]1 | -19.8% (inactive) |
| NC(=NC(=O)c1cccc(C(F)(F)F)c1)c1ccc(C(F)(F)F)cn1 | 47.1% |
| Clc1ccc2c(Nc3ccc4c(c3)OCO4)ccnc2c1 | -9.65% (inactive) |
| O=C1c2ccc(Cl)c3c(N4CCSCC4)ccc(c23)C(=O)N1c1ccccc1 | -15.7% (inactive) |
| CCOC(=O)C1CCN(Cc2cccc(NC(=O)c3cccs3)c2)CC1 | 15.1% (inactive) |
| Nc1c(C(=O)N/N=C/c2ccc3c(c2)OCO3)sc2nnc(-c3ccccc3)c(-c3ccccc3)c12 | 65% |
| CCOC(=O)[C@@H](N)CCSC | -3.49% (inactive) |
